From ChEMBL document CHEMBL3507680, “University of Dundee, Gates Library screen for HepG2 cell viability” come the findings set out here.

This series is described as follows: Human HepG2 cell viability assay in 384 well format. It counts as toxicity, cell-based. More on the design: dose 125 nL, time 70.5 hour; concentration not given beside the values. Particulars: HepG2 cells, read-out: Inhibition.
For the molecule `CN(C)c1cc(CNC(=O)c2c(F)cccc2F)ccn1`, the cytotoxicity at 70.5 h came out at 1.27%. Then `O=C(NCCCN1CCCCC1)c1n[nH]c(=O)c2ccccc12`, with 25%; and `CN(C)c1cc(CNC(=O)c2ccccc2S(C)(=O)=O)ccn1`, with 0.46%; and `O=C(Cc1ccc(F)c(Br)c1)NC1CCN(CC(F)F)CC1`, with 3.07%. Then `CC(c1ccc(F)cc1)N1CCN(Cc2nccn2C)CC1` (stereo not drawn), with 4.48%; and `COc1cc(CNc2cc(N3CCCC3CO)ncn2)ccn1` (stereo not drawn), with 24.7%; and `COc1nc(C)ccc1CNc1cc(N2CCCC2CO)ncn1` (stereo not drawn), with 7.33%. Consider `OCC1CCCN1c1cc(NCc2cccc3cccnc23)ncn1` (stereo not drawn), for which the cytotoxicity at 70.5 h amounted to 3.27%.

Take `CC(C)c1nc(CN(C)C2CCN(CCS(C)(=O)=O)C2)no1` (stereo not drawn): the cytotoxicity at 70.5 h was -4.02%. Turning to `CCc1nc(CN(C)C2CCN(CC(=O)N(C)C)C2)no1` (stereo not drawn), the cytotoxicity at 70.5 h is -5.61%.

As for `Cc1ccc(NC2CCN(C(=O)c3cccnc3N(C)C)CC2)nn1`, the cytotoxicity at 70.5 h came to 0.412%. The result for `O=C(NCc1ccco1)N(CCCO)C1CCCc2ccccc21` (stereo not drawn) reads -5.76%; that for `CCc1[nH]ncc1C(=O)N1CCCC(n2nc(C)cc2C)C1` (stereo not drawn), -10.3%; that for `CN(CCC(=O)N1CCc2sccc2C1)Cc1cnn(C)c1`, -2.72%. Turning to `CC(C)c1ncc2c(n1)CN(CCCc1nc3ccccc3o1)CC2`, the cytotoxicity at 70.5 h was -3.98%. Then `CCc1ccc(C(N)c2cccc(S(C)(=O)=O)c2)cc1` (stereo not drawn), with -4.78%. The result for `CCc1nc(C2CCCN2Cc2cnc(C)cn2)no1` (stereo not drawn) reads -3.7%; that for `Cc1cnc(CN2CCCC2c2noc(C(C)C)n2)cn1` (stereo not drawn), 1.04%.

With `CN(CCC(=O)N1CCc2sccc2C1)Cc1cc(Br)cs1`, the cytotoxicity at 70.5 h was -4.84%. As to `Cc1noc(C)c1CC(=O)N1CCc2sccc2C1`, the cytotoxicity at 70.5 h was -4.18%. Then `COc1ccc(C)cc1C(C)NC(=O)CCn1cncn1` (stereo not drawn), with -5.61%; and `O=C(c1cccc2ncccc12)N1CCC(Nc2cccnn2)CC1`, with -3.36%. Turning to `CS(=O)(=O)c1cccc(C(N)c2ccccc2)c1` (stereo not drawn), the cytotoxicity at 70.5 h was -1.27%. Then `Cc1cnc(CNC(=O)N(CCCO)C2CCc3ccccc32)s1` (stereo not drawn), with 0.605%; and `CN(Cc1noc(C2CC2)n1)C1CCN(CCc2cnn(C)c2)C1` (stereo not drawn), with 14.4%; and `CC(C)c1cnc(CN(C)C2CCN(CCCc3cnn(C)c3)C2)o1` (stereo not drawn), with 20.9%. Then `c1ccc(-c2nc(CN3CCn4c(nnc4C4CC4)C3)co2)cc1`, with -9.3%.

As to `CN(CC(=O)NC1(C)CCS(=O)(=O)C1)Cc1ccc(F)c(F)c1` (stereo not drawn), the cytotoxicity at 70.5 h amounted to 3.42%. Take `COc1cccc(CN(C)CC(=O)NC2(C)CCS(=O)(=O)C2)c1` (stereo not drawn): the cytotoxicity at 70.5 h was -15.4%. Take `Cc1cc(C(=O)N2CCN(Cc3ccsc3)CC2)c(C)n1C1CC1`: the cytotoxicity at 70.5 h was -14.9%.

Consider `c1ccc2c(OCCN3CCn4c(nnc4C4CC4)C3)cccc2c1`, for which the cytotoxicity at 70.5 h is 2.06%. Take `c1ccc(Cc2nnc(CN3CCn4c(nnc4C4CC4)C3)o2)cc1`: the cytotoxicity at 70.5 h is -13.3%. The result for `O=C(NCCN1C(=O)c2ccccc2C1=O)c1scnc1Cl` reads -7.67%; that for `NC(=O)CN1CCCN(C(=O)Cc2ccc(Br)cc2)CC1`, -13.7%. In the case of `O=C(NCCNC(=O)c1scnc1Cl)c1ccoc1`, the cytotoxicity at 70.5 h amounted to 5.67%.

With `COc1ccc(CN2CCN(C(=O)c3ccc(C)n3C)CC2)cc1`, the cytotoxicity at 70.5 h is -11.9%. Regarding `Cc1csc(N2CCCN(C(=O)c3occc3C)CC2)n1`, the cytotoxicity at 70.5 h amounted to 1.54%.

For `NC(=O)CN1CCCN(C(=O)Cc2ccc(F)cc2)CC1`, the cytotoxicity at 70.5 h is -13.3%.

Consider `NC(=O)CN1CCCN(C(=O)Cc2cccc(C(F)(F)F)c2)CC1`, for which the cytotoxicity at 70.5 h was determined as 4.42%. Then `Cc1ccc(C(=O)N2CCN(Cc3cccs3)CC2)n1C`, with -14.9%; and `Cc1ccoc1-c1nnc(CN2CCn3c(C)nnc3C2)o1`, with -0.634%. On to `Cc1ncc2c(n1)CN(CC(=O)Nc1ccc(Cl)cn1)CC2`, for which the cytotoxicity at 70.5 h is -13.8%. With `CCc1ncc2c(n1)CN(CC(=O)Nc1cc(C)no1)CC2`, the cytotoxicity at 70.5 h is -0.924%. The result for `Cc1ccc(NC2CCN(C(=O)c3cc(C)sc3C)CC2)nn1` reads -11.8%. Take `Cc1ccoc1-c1nnc(CN2CCn3c(nnc3C(C)C)C2)o1`: the cytotoxicity at 70.5 h is -2.59%. Then `Cc1ncc(CN2CCCC(c3cc(C(F)(F)F)[nH]n3)C2)s1` (stereo not drawn), with -1.49%; and `CCc1ncc2c(n1)CN(CC(=O)Nc1cc(C)on1)CC2`, with 12%. Regarding `Cc1csc(N2CCCN(C(=O)c3csc(C)n3)CC2)n1`, the cytotoxicity at 70.5 h is -10.6%. Then `Cc1nn(C)c(N(C)C)c1CNCc1ccc(OCCN(C)C)cc1`, with 22.3%; and `COc1c(CNCc2ccc(OCC(N)=O)cc2)c(C)nn1C`, with 7.56%. With `OC(COCc1cccs1)CN1CCc2c(ncn2C2CC2)C1` (stereo not drawn), the cytotoxicity at 70.5 h is -2.16%. The result for `CCOCCN1CCN(Cc2cccc(C(=O)N(C)C)c2)CC1C` (stereo not drawn) reads -9.62%. Consider `CCc1noc(C(C)N2CCN(CC)CC2)n1` (stereo not drawn), for which the cytotoxicity at 70.5 h was -8.24%. Then `CCc1noc(C(C)N2CCC(O)CC2)n1` (stereo not drawn), with -10.2%; and `CC(C)(C)c1nnc(CN2CCCC(Cn3cncn3)C2)o1` (stereo not drawn), with -5.42%; and `Cc1n[nH]c(C)c1C1COCCN1C(=O)c1ccccc1` (stereo not drawn), with -8.5%. As to `COc1ccc(CNCc2ccnc(N3CCCCC3)c2)cc1OC`, the cytotoxicity at 70.5 h is -4.98%.

In the case of `Cn1cnc2c1CCN(Cc1csc(-c3ccsc3)n1)C2`, the cytotoxicity at 70.5 h stood at 20.4%.

As to `Cc1noc(C2CCN(C(=O)CCc3nccs3)CC2)n1`, the cytotoxicity at 70.5 h is 21.5%. Then `CC(C)n1ccnc1CN1CCCN(C(=O)c2cccnc2O)CC1`, with 23.5%; and `CCc1nc(C2CCCN2CCc2ccccn2)no1` (stereo not drawn), with 24.9%. In the case of `COc1cccc(-n2nnc(C(=O)N3CCN(C)CC3C)c2C)c1` (stereo not drawn), the cytotoxicity at 70.5 h turned out to be 56.4%.

As to `Cc1noc(C2CCN(C(=O)CCNc3ncccn3)CC2)n1`, the cytotoxicity at 70.5 h is -1.06%. `CC(C)c1nc(CC(=O)N2CCCC(n3cncn3)C2)cs1` (stereo not drawn): the cytotoxicity at 70.5 h came out at 2.88%.

In the case of `CNC(=O)COc1ccccc1CNC1CCc2ncnn2C1` (stereo not drawn), the cytotoxicity at 70.5 h worked out at 29.2%.

With `CC(C)n1ccnc1CN1CCCN(C(=O)c2nccnc2N)CC1`, the cytotoxicity at 70.5 h is -16.3%.

On to `O=C(NCCn1ccnc1)N1CCCC1c1ccsc1` (stereo not drawn), for which the cytotoxicity at 70.5 h was -4.3%. The result for `O=C(c1cc(C2CC2)on1)N1CCCC(n2cncn2)C1` (stereo not drawn) reads 30.6%. For the molecule `O=C(Cc1cn2ccsc2n1)N1CCCC(n2cncn2)C1` (stereo not drawn), the cytotoxicity at 70.5 h was determined as 0.86%. The result for `O=C(Nc1cccc2c1CCCC2)C1CCCN1c1nccs1` (stereo not drawn) reads 2.35%.

Regarding `O=C(c1ccc(OCC2CC2)nc1)N1CCCC(n2ccnc2)C1` (stereo not drawn), the cytotoxicity at 70.5 h was -14.6%. Then `CC1COCCN1C(=O)c1cccc(OCc2cscn2)c1` (stereo not drawn), with -8.23%. Then `O=C(NCC1CCOC1)Nc1ccc(OCC(F)(F)F)nc1` (stereo not drawn), with -10.7%; and `Cc1ccc(Oc2ccc(NC(=O)NCC3CCOC3)cn2)cc1C` (stereo not drawn), with 4.23%; and `COCC(C)N(C)C(=O)c1nc(S(C)(=O)=O)n2ccccc12` (stereo not drawn), with -0.102%. With `Cc1ccc(C(=O)N2CCN(CCc3cccs3)CC2)c(=O)[nH]1`, the cytotoxicity at 70.5 h is -8.54%. The result for `Cc1cc(C2CCCN2Cc2ccn(C)c(=O)c2)no1` (stereo not drawn) reads -1.78%; that for `Cn1ccc(CN2CCC(NC(=O)Cc3ccccc3)CC2)cc1=O`, 2.35%; that for `Cc1cnn(C2CCCN(C(=O)c3cc(C4CC4)on3)C2)c1` (stereo not drawn), -4.84%.

Turning to `Cc1ccc(-c2nc(CN3CCc4c(ncn4C)C3)cs2)o1`, the cytotoxicity at 70.5 h was 36.9%. Take `O=C(c1cc(C2CC2)[nH]n1)N1CCCC(n2cncn2)C1` (stereo not drawn): the cytotoxicity at 70.5 h was -0.297%.

Regarding `O=C1NCc2ccc(NC(=O)C3CCCN3c3nccs3)cc21` (stereo not drawn), the cytotoxicity at 70.5 h is -9.24%.

With `CS(=O)(=O)NCC1CCCN(C(=O)COc2ccc(F)cc2)C1` (stereo not drawn), the cytotoxicity at 70.5 h is -15.8%. Then `NC(=O)CN1CCC(NC(=O)Nc2nccs2)CC1`, with 21.5%; and `O=C(Nc1nnc(C2CC2)s1)NC1CCN(Cc2ccccc2)C1` (stereo not drawn), with -28%. The result for `Cc1cccc(N2CCN(C(=O)Nc3cnn(CC(N)=O)c3)CC2)c1` reads -18.1%; that for `Cc1noc(C2CCN(C(=O)c3ccc(NC4CC4)nc3)CC2)n1`, -10.2%; that for `Cc1ccc(C(CNC(=O)NCc2cc[nH]n2)N2CCOCC2)o1` (stereo not drawn), -14.3%.

For `NC(=O)Cn1cc(NC(=O)N2CCCC2)cn1`, the cytotoxicity at 70.5 h is -29.6%. For `Cn1cnc2c1CCN(Cc1cccc(OCC(N)=O)c1)C2`, the cytotoxicity at 70.5 h is -9.69%. Turning to `Cc1cc(CN2CCCC2Cn2cncn2)no1` (stereo not drawn), the cytotoxicity at 70.5 h came out at 26.7%.

Take `COc1ccc(CNCC2CCN(CC(C)O)CC2)c2ccccc12` (stereo not drawn): the cytotoxicity at 70.5 h was 29.8%. `CCn1ccnc1CN1CCCN(C(=O)c2cc(Cl)c[nH]2)CC1`: the cytotoxicity at 70.5 h is -12.8%. As for `Cc1cnn(CC2CCCN2C(=O)c2ccc(C(N)=O)cn2)c1` (stereo not drawn), the cytotoxicity at 70.5 h was -10.6%. In the case of `O=C1CCC(C(=O)NCc2nn(-c3ccccc3)c3c2CCC3)CN1` (stereo not drawn), the cytotoxicity at 70.5 h worked out at 4.23%.

Regarding `CCn1c(C)cc(C(=O)N2CCCC(n3nc(C)nc3C)C2)c1C` (stereo not drawn), the cytotoxicity at 70.5 h is -7.33%. The result for `CCn1nc2c(cc1=O)CN(Cc1nc(-c3ccccn3)no1)CC2` reads -1.12%.

Regarding `CCn1nc2c(cc1=O)CN(Cc1nc(-c3ccsc3)no1)CC2`, the cytotoxicity at 70.5 h is -22.4%. For `CC(C)c1cc(CNC(=O)N2CCC(Cc3cnn(C)c3)C2)on1` (stereo not drawn), the cytotoxicity at 70.5 h was -11.4%. The result for `O=C(NCc1nn(-c2ccccc2)c2c1CCC2)N1CCSCC1` reads 32.7%; that for `CCn1ccnc1CN1CCN(CC(O)c2ccccc2)CC1` (stereo not drawn), -15.4%. Turning to `CC(C)c1ncncc1C(=O)NCCN1CCCS1(=O)=O`, the cytotoxicity at 70.5 h is -12.7%. As to `Cc1ccc(C(N)c2cccc(S(C)(=O)=O)c2)c(C)c1` (stereo not drawn), the cytotoxicity at 70.5 h was -7.42%.
